Measurements published in patent publication US20080200454A1, “CARBON-LINKED TETRAHYDRO-PYRAZOLO-PYRIDINE MODULATORS OF CATHEPSIN S” (priority 2007, published 2008).
Like-named read-outs stand apart in the source and are kept apart here.

Molecular target: Recombinant human cathepsin S (CatS) (Homo sapiens, UniProt P25774)
Assay: Recombinant human cathepsin S (CatS) inhibition assay, fluorogenic substrate Z-Valine-Valine-Arginine-AMC;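 also: Baculovirus-expressed CatS in pH 5.0 sodium acetate buffer with DTT and NaCl, fluorescence read each minute over 20 min, inhibition derived from rate slope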

Sequence of Recombinant human cathepsin S (CatS) (P25774 115-331): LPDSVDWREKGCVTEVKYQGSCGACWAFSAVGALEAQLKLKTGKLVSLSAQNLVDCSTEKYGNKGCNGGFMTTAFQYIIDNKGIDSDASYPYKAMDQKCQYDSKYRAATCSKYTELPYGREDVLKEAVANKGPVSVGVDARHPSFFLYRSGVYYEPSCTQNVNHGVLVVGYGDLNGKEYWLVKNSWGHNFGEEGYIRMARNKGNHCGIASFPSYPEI

IC50 [nM] | SMILES | IC50 (CatS IC50) [nM]
 | CS(=O)(=O)N1CCc2c(c(-c3ccc(Cl)c(C#Cc4ccc(CNCc5ccsc5)cc4)c3)nn2CCCN2CCOCC2)C1 [Example 422, 1-[4-({2-Chloro-5-[5-(methylsulfonyl)-1-(3-morpholin-4-ylpropyl)-4,5,6,7-tetrahydro-1H-pyrazolo[4,3-c]pyridin-3-yl]phenyl}ethynyl)phenyl]-N-(3-thienylmethyl)methanamine] | 170
 | CS(=O)(=O)N1CCc2c(c(-c3ccc(Cl)c(C#Cc4ccc(CNCCc5cccs5)cc4)c3)nn2CCCN2CCOCC2)C1 [Example 423, N-{[4-({2-Chloro-5-[5-(methylsulfonyl)-1-(3-morpholin-4-ylpropyl)-4,5,6,7-tetrahydro-1H-pyrazolo[4,3-c]pyridin-3-yl]phenyl}ethynyl)phenyl]methyl}-2-(2-thienyl)ethanamine] | 270
 | Cc1ccsc1CNCc1ccc(C#Cc2cc(-c3nn(CCCN4CCOCC4)c4c3CN(S(C)(=O)=O)CC4)ccc2Cl)cc1 [Example 424, 1-[4-({2-Chloro-5-[5-(methylsulfonyl)-1-(3-morpholin-4-ylpropyl)-4,5,6,7-tetrahydro-1H-pyrazolo[4,3-c]pyridin-3-yl]phenyl}ethynyl)phenyl]-N-[(3-methyl-2-thienyl)methyl]methanamine] | 200
 | CS(=O)(=O)N1CCc2c(c(-c3ccc(Cl)c(C#Cc4ccc(CNCc5ccco5)cc4)c3)nn2CCCN2CCOCC2)C1 [Example 425, 1-[4-({2-Chloro-5-[5-(methylsulfonyl)-1-(3-morpholin-4-ylpropyl)-4,5,6,7-tetrahydro-1H-pyrazolo[4,3-c]pyridin-3-yl]phenyl}ethynyl)phenyl]-N-(furan-2-ylmethyl)methanamine] | 70
 | Cc1cc(CNCc2ccc(C#Cc3cc(-c4nn(CCCN5CCOCC5)c5c4CN(S(C)(=O)=O)CC5)ccc3Cl)cc2)c(C(F)(F)F)o1 [Example 426, 1-[4-({2-Chloro-5-[5-(methylsulfonyl)-1-(3-morpholin-4-ylpropyl)-4,5,6,7-tetrahydro-1H-pyrazolo[4,3-c]pyridin-3-yl]phenyl}ethynyl)phenyl]-N-{[5-methyl-2-(trifluoromethyl)furan-3-yl]methyl}methanamine] | 390
1990 | CS(=O)(=O)N1CCc2c(c(-c3ccc(Cl)c(C#Cc4cncc(CNCc5ccccc5)c4)c3)nn2CCCN2CCOCC2)C1 [Example 427, 1-[5-({2-Chloro-5-[5-(methylsulfonyl)-1-(3-morpholin-4-ylpropyl)-4,5,6,7-tetrahydro-1H-pyrazolo[4,3-c]pyridin-3-yl]phenyl}ethynyl)pyridin-3-yl]-N-(phenylmethyl)methanamine] | 
 | CS(=O)(=O)N1CCc2c(c(-c3ccc(Cl)c(C#Cc4cncc(CNCc5ccc(Cl)cc5)c4)c3)nn2CCCN2CCOCC2)C1 [Example 428, 1-[5-({2-Chloro-5-[5-(methylsulfonyl)-1-(3-morpholin-4-ylpropyl)-4,5,6,7-tetrahydro-1H-pyrazolo[4,3-c]pyridin-3-yl]phenyl}ethynyl)pyridin-3-yl]-N-[(4-chlorophenyl)methyl]methanamine] | 3750
20 | NC(=O)C(=O)N1CCc2c(c(-c3ccc(Cl)c(C#Cc4ccc(CNCc5ccc(Cl)cc5)cc4)c3)nn2CCCN2CCN(c3ccccc3)CC2)C1 [Example 429, 2-{3-(4-Chloro-3-{[4-({[(4-chlorophenyl)methyl]amino}methyl)phenyl]ethynyl}phenyl)-1-[3-(4-phenylpiperazin-1-yl)propyl]-1,4,6,7-tetrahydro-5H-pyrazolo[4,3-c]pyridin-5-yl}-2-oxoacetamide] | 
40 | NC(=O)N1CCc2c(c(-c3ccc(Cl)c(C#Cc4ccc(CNCc5ccc(Cl)cc5)cc4)c3)nn2CCCN2CCN(c3ccccc3)CC2)C1 [Example 430, 3-(4-Chloro-3-{[4-({[(4-chlorophenyl)methyl]amino}methyl)phenyl]ethynyl}phenyl)-1-[3-(4-phenylpiperazin-1-yl)propyl]-1,4,6,7-tetrahydro-5H-pyrazolo[4,3-c]pyridine-5-carboxamide] | 
170 | Cc1ccsc1CNCc1ccc(C#Cc2cc(-c3nn(CCCN4CCOC[C@@H]4C)c4c3CN(S(C)(=O)=O)CC4)ccc2Cl)cc1 [Example 431, 1-[4-({2-Chloro-5-[1-{3-[(3S)-3-methylmorpholin-4-yl]propyl}-5-(methylsulfonyl)-4,5,6,7-tetrahydro-1H-pyrazolo[4,3-c]pyridin-3-yl]phenyl}ethynyl)phenyl]-N-[(3-methyl-2-thienyl)methyl]methanamine] | 
 | C[C@H]1COCCN1CCCn1nc(-c2ccc(Cl)c(C#Cc3ccc(CNCc4ccco4)cc3)c2)c2c1CCN(S(C)(=O)=O)C2 [Example 432, 1-[4-({2-Chloro-5-[1-{3-[(3S)-3-methylmorpholin-4-yl]propyl}-5-(methylsulfonyl)-4,5,6,7-tetrahydro-1H-pyrazolo[4,3-c]pyridin-3-yl]phenyl}ethynyl)phenyl]-N-(furan-2-ylmethyl)methanamine] | 230
 | C[C@H]1COCCN1CCCn1nc(-c2ccc(Cl)c(C#Cc3ccc(CNCc4cccs4)cc3)c2)c2c1CCN(S(C)(=O)=O)C2 [Example 433, 1-[4-({2-Chloro-5-[1-{3-[(3S)-3-methylmorpholin-4-yl]propyl}-5-(methylsulfonyl)-4,5,6,7-tetrahydro-1H-pyrazolo[4,3-c]pyridin-3-yl]phenyl}ethynyl)phenyl]-N-(2-thienylmethyl)methanamine] | 240
 | C[C@H]1COCCN1CCCn1nc(-c2ccc(Cl)c(C#Cc3ccc(CNCc4ccsc4)cc3)c2)c2c1CCN(S(C)(=O)=O)C2 [Example 434, 1-[4-({2-Chloro-5-[1-{3-[(3S)-3-methylmorpholin-4-yl]propyl}-5-(methylsulfonyl)-4,5,6,7-tetrahydro-1H-pyrazolo[4,3-c]pyridin-3-yl]phenyl}ethynyl)phenyl]-N-(3-thienylmethyl)methanamine] | 200
80 | NC(=O)C(=O)N1CCc2c(c(-c3ccc(Cl)c(C#Cc4ccc(CNCc5ccc(Cl)cc5)cc4)c3)nn2CCCN2C[C@@H]3C[C@H]2CO3)C1 [Example 435, 2-[3-(4-Chloro-3-{[4-({[(4-chlorophenyl)methyl]amino}methyl)phenyl]ethynyl}phenyl)-1-{3-[(1S,4S)-2-oxa-5-azabicyclo[2.2.1]hept-5-yl]propyl}-1,4,6,7-tetrahydro-5H-pyrazolo[4,3-c]pyridin-5-yl]-2-oxoacetamide] | 
280 | CS(=O)(=O)N1CCc2c(c(-c3ccc(Cl)c(C#Cc4ccc(CNCc5ccc(Cl)cc5)c(F)c4)c3)nn2CCCN2CCOCC2)C1 [Example 436, 1-[4-({2-Chloro-5-[5-(methylsulfonyl)-1-(3-morpholin-4-ylpropyl)-4,5,6,7-tetrahydro-1H-pyrazolo[4,3-c]pyridin-3-yl]phenyl}ethynyl)-2-fluorophenyl]-N-[(4-chlorophenyl)methyl]methanamine] | 
570 | CS(=O)(=O)N1CCc2c(c(-c3ccc(Cl)c(C#Cc4ccc(CNCc5ccc(Cl)cc5)cc4)c3)nn2CCCN2CCOCC2C(=O)O)C1 (centres unmarked) [Example 437, 4-{3-[3-(4-Chloro-3-{[4-({[(4-chlorophenyl)methyl]amino}methyl)phenyl]ethynyl}phenyl)-5-(methylsulfonyl)-4,5,6,7-tetrahydro-1H-pyrazolo[4,3-c]pyridin-1-yl]propyl}morpholine-3-carboxylic acid] | 
 | CS(=O)(=O)N1CCc2c(c(-c3ccc(Cl)c(C#Cc4cccc(CNCc5ccc(Cl)cc5)c4)c3)nn2CCCN2CCOCC2)C1 [Example 438, 1-[3-({2-Chloro-5-[5-(methylsulfonyl)-1-(3-morpholin-4-ylpropyl)-4,5,6,7-tetrahydro-1H-pyrazolo[4,3-c]pyridin-3-yl]phenyl}ethynyl)phenyl]-N-[(4-chlorophenyl)methyl]methanamine] | 720
320 | C[C@H]1COCCN1CCCn1nc(-c2ccc(Cl)c(C#Cc3cccc(CNCc4ccc(Cl)cc4)c3)c2)c2c1CCN(S(C)(=O)=O)C2 [Example 439, 1-[3-({2-Chloro-5-[1-{3-[(3S)-3-methylmorpholin-4-yl]propyl}-5-(methylsulfonyl)-4,5,6,7-tetrahydro-1H-pyrazolo[4,3-c]pyridin-3-yl]phenyl}ethynyl)phenyl]-N-[(4-chlorophenyl)methyl]methanamine] | 
 | CS(=O)(=O)N1CCc2c(c(-c3ccc(Cl)c(C#Cc4cccc(CNCc5ccc(Cl)cc5)c4)c3)nn2CCCN2C[C@@H]3C[C@H]2CO3)C1 [Example 440, 1-[3-({2-Chloro-5-[5-(methylsulfonyl)-1-{3-[(1S,4S)-2-oxa-5-azabicyclo[2.2.1]hept-5-yl]propyl}-4,5,6,7-tetrahydro-1H-pyrazolo[4,3-c]pyridin-3-yl]phenyl}ethynyl)phenyl]-N-[(4-chlorophenyl)methyl]methanamine] | 390
 | CS(=O)(=O)N1CCc2c(c(-c3ccc(Cl)c(C#Cc4c[nH]cn4)c3)nn2CCCN2CCOCC2)C1 [Example 441, 3-[4-Chloro-3-(1H-imidazol-4-ylethynyl)phenyl]-5-(methylsulfonyl)-1-(3-morpholin-4-ylpropyl)-4,5,6,7-tetrahydro-1H-pyrazolo[4,3-c]pyridine] | 3060
 | CS(=O)(=O)N1CCc2c(c(-c3ccc(Cl)c(C#Cc4ccc(CN5CCc6ccccc6C5)cc4)c3)nn2CCCN2CCOCC2)C1 [Example 442, 2-{[4-({2-Chloro-5-[5-(methylsulfonyl)-1-(3-morpholin-4-ylpropyl)-4,5,6,7-tetrahydro-1H-pyrazolo[4,3-c]pyridin-3-yl]phenyl}ethynyl)phenyl]methyl}-1,2,3,4-tetrahydroisoquinoline] | 300
 | CS(=O)(=O)N1CCc2c(c(-c3ccc(Cl)c(C#Cc4ccc(CN5Cc6ccccc6C5)cc4)c3)nn2CCCN2CCOCC2)C1 [Example 443, 3-(4-Chloro-3-{[4-(1,3-dihydro-2H-isoindol-2-ylmethyl)phenyl]ethynyl}phenyl)-5-(methylsulfonyl)-1-(3-morpholin-4-ylpropyl)-4,5,6,7-tetrahydro-1H-pyrazolo[4,3-c]pyridine] | 690
210 | CS(=O)(=O)N1CCc2c(c(-c3ccc(Cl)c(C#Cc4ccc(CN[C@@H]5CCCc6ccccc65)cc4)c3)nn2CCCN2CCOCC2)C1 [Example 444, (1R)—N-{[4-({2-Chloro-5-[5-(methylsulfonyl)-1-(3-morpholin-4-ylpropyl)-4,5,6,7-tetrahydro-1H-pyrazolo[4,3-c]pyridin-3-yl]phenyl}ethynyl)phenyl]methyl}-1,2,3,4-tetrahydronaphthalen-1-amine] | 
